In experiment [1] the test system is HSV-2. Kind of experiment: HSV-2 plaque assay in Vero E6 cells with EF eluants. Type of experiment: cell-based. The method, then: Initially, experiments were undertaken to determine the in vitro efficacy of unmodified EFs that encapsulated antivirals (ACV and TDF) or are surface-modified with GRFT, against HSV-2 infection. […] The top row of each plate contained cells that were incubated with blank PLGA or PLCL EFs. […] After infection, cells were incubated with IgG to neutralize free HSV-2, and EF eluants were administered to Vero E6 cells. Appropriate controls of: [no treatment/no virus], [no treatment/virus], [blank PLGA or PLCL EFs, virus], and [free ACV, virus] were conducted. […] Similarly, fibers were assessed after 28 days to ensure bioactivity after one month in SVF. […] Only one of the three IC50 curves is shown for each in FIG. 13 for purposes of brevity.

A further experiment has as its system HIV-1. As to the kind of experiment: Env-pseudotyped virus infectivity assay of TDF EFs in TZM-bl cells. The experiment is classed as cell-based. The following applies: EFs given 1 and 24 hr before infection.
The test system of experiment [2] is HIV-1 pseudovirus (CCR5-using clade A strain Q769.h5). Kind of experiment: Env-pseudotyped virus infectivity assay in TZM-bl cells (luciferase). Type of experiment: cell-based. The note with it: similar administration durations. From the text: Materials. Carboxyl-terminated 50:50 poly(lactic-co-glycolic acid) (PLGA, 0.55-0.75 dL/g, 31-57 k MW) was purchased from Lactel Absorbable Polymers (Cupertino, Calif.). Dichloromethane (DCM), dimethyl sulfoxide (DMSO), and the MTT assay kit were obtained from Sigma Aldrich (St Louis, Mo.). 1,1,1,3,3,3-hexafluoro-2-propanol (HFIP) was obtained from Fisher Scientific (Pittsburgh, Pa.). GRFT (MW 12.7 kDa) was produced in Nicotiana benthamiana as previously reported. Fetal bovine serum (FBS) and antibiotics (penicillin/streptomycin) were purchased from VWR. Dulbecco's modified Eagle's medium (DMEM) and keratinocyte serum-free medium were purchased from Invitrogen. The EDC-NHS and enzyme-linked immunosorbent assay (ELISA) kits were purchased from ThermoFisher. Simulated vaginal fluid (SVF) was prepared as described previously. […]
Cell lines. […] Vaginal keratinocyte, VK2/E6E7 (VK2); ectocervical, Ect1/E6E7 (Ect1); and endocervical, End1/E6E7 (End1) cell lines, obtained from ATCC, were evaluated in cytotoxicity experiments. […]
In vitro antiviral activity of GRFT-EFs. […] The anti-HIV activity of the GRFT-EFs was measured as a reduction in firefly luciferase (Luc) reporter gene expression in the presence of GRFT-EFs compared to unmodified EFs after a single round of infection in TZM-bl cells. […]

The test system of another experiment is HIV-1BaL. As to the kind of experiment: HIV-1 infection of polarized ectocervical tissue explants. Type of experiment: cell-based, human.
Experiment [3] concerns HIV-1 pseudovirus (CCR5-using clade A strain Q769.h5). The note with it: same virus strain (Q769.h5); cited from earlier work.
A further experiment has as its system HIV-1 isolates. The following applies: most HIV-1 isolates; cited from earlier work.
Experiment [4] concerns HSV-2. The following applies: in vitro; read-out: cell-dependent EC50; cited from earlier work.
Experiment [5] deals with HSV-2. The following applies: in vivo; cited from earlier work.
In experiment [6] the test system is HIV-1-enveloped pseudovirus. The following applies: subcutaneous administration in mice; cited from earlier work.

In brackets after ≈: the same amount, converted by molar mass. Counter-ions that a name gives are not always drawn. Like-named read-outs stand apart in the source and are kept apart here.

Usually IC50 stands for the concentration needed to halve the response being measured. Usually EC50 stands for the concentration giving half of the maximal effect.

`Nc1nc2c(ncn2COCCO)c(=O)[nH]1` [free ACV, acyclovir]: the IC50 in the experiment with HSV-2 [1] (Human alphaherpesvirus 2, Vero C1008, 72 h, fiber eluant collected after 3 days, read-out: average IC50) is 0.287 µg/mL (≈ 1.27 µM); in the experiment on HSV-2 [1] (Human alphaherpesvirus 2, Vero C1008, 672 h, after 28 days in SVF, read-out: IC50) it was 0.293 µg/mL (≈ 1.3 µM); with HSV-2 [1] (Human alphaherpesvirus 2, Vero C1008, eluant released between 21 and 28 days, read-out: IC50), 0.293 µg/mL (≈ 1.3 µM).
With `CC(C)OC(=O)OCOP(=O)(CO[C@H](C)Cn1cnc2c(N)ncnc21)OCOC(=O)OC(C)C` [free TDF, tenofovir disoproxil fumarate], the “protection against HIV-1” value in the experiment with HIV-1 is reported as “complete protection against HIV-1”.
griffithsin [free GRFT]: the “IC50 of free GRFT” value in experiment [2] amounted to 233±2.7 ng GRFT/mL. Also, the “block of HIV-1 infection in ectocervical explants” value in the experiment on HIV-1BaL is listed as “blocks HIV-1 infection”. Also, the “concentration down to which HIV-1 infection was blocked” value in the experiment on HIV-1BaL (ectocervical tissue, 10^4 TCID50 HIV-1BaL overnight, 21 days culture) was determined as 10 µM. In experiment [3], the “previous literature measurement for free GRFT” value was 157 ng/mL. Besides, the “in vitro inhibitory activity (EC50)” value in the experiment on HIV-1 isolates was “mid-pM to low-nM range”. Besides, the EC50 with HSV-2 [4] was 2.3 to 143 µM. In the experiment on HSV-2 [5], the HSV-2 cell entry result is “modestly inhibited” and the HSV-2 cell-to-cell spread result is “completely inhibiting”. Besides, in experiment [6], the “antiviral activity of serum from treated animals” value is “retained antiviral activity”.

The values are drawn from US20210106650A1, “MICROBICIDAL COMPOSITIONS AND METHODS FOR TREATMENT OF VIRAL INFECTIONS” (University of Louisville Research Foundation, Inc., priority 2015, published 2021).
